The data set deals with CCRIS mutagenicity, Ames/micronucleus/aberration tests. As to the kind of experiment: CCRIS mutagenicity studies.
The mark [1] stands for this setting: Test System: AMES SALMONELLA TYPHIMURIUM, Strain/Indicator: TA98, Metabolic Activation: NONE, Method: STANDARD PLATE.
The mark [2] stands for this setting: Test System: AMES SALMONELLA TYPHIMURIUM, Strain/Indicator: TA100, Metabolic Activation: NONE, Method: STANDARD PLATE.
Setting [3] is: Test System: AMES SALMONELLA TYPHIMURIUM, Strain/Indicator: TA1537, Metabolic Activation: NONE, Method: STANDARD PLATE.
Where [4] appears, read: Test System: AMES SALMONELLA TYPHIMURIUM, Strain/Indicator: TA1538, Metabolic Activation: NONE, Method: STANDARD PLATE.
[5] abbreviates: Test System: AMES SALMONELLA TYPHIMURIUM, Strain/Indicator: TA1535, Metabolic Activation: NONE, Method: STANDARD PLATE.

Activity calls are given as the source filed them. No rule for the calls is given here.

As for `CCC1CCC(CCC(=O)[O-])C1.CCC1CCC(CCC(=O)[O-])C1.[Co+2]` (stereo not given), the mutagenic call (Test System: AMES SALMONELLA TYPHIMURIUM, Strain/Indicator: TA98, Metabolic Activation: HAMSTER, LIVER, S-9, AROCLOR 1254 (10%), Method: STANDARD PLATE) is “inactive; negative”; the mutagenic call under setting [1] is “inactive; negative”; the mutagenic call (Test System: AMES SALMONELLA TYPHIMURIUM, Strain/Indicator: TA98, Metabolic Activation: RAT, LIVER, S-9, AROCLOR 1254 (10%), Method: STANDARD PLATE) is “active; positive”; the mutagenic call (Test System: AMES SALMONELLA TYPHIMURIUM, Strain/Indicator: TA100, Metabolic Activation: HAMSTER, LIVER, S-9, AROCLOR 1254 (10%), Method: STANDARD PLATE) was “inactive; negative”; the mutagenic call under setting [2] was “inactive; negative”; the mutagenic call (Test System: AMES SALMONELLA TYPHIMURIUM, Strain/Indicator: TA100, Metabolic Activation: RAT, LIVER, S-9, AROCLOR 1254 (10%), Method: STANDARD PLATE) was “inactive; negative”. The mutagenic call reads like this: (Test System: AMES SALMONELLA TYPHIMURIUM, Strain/Indicator: TA1537, Metabolic Activation: HAMSTER, LIVER, S-9, AROCLOR 1254 (10%), Method: STANDARD PLATE) “inactive; negative”; under setting [3], “inactive; negative”; (Test System: AMES SALMONELLA TYPHIMURIUM, Strain/Indicator: TA1537, Metabolic Activation: RAT, LIVER, S-9, AROCLOR 1254 (10%), Method: STANDARD PLATE) “inactive; negative”; (Test System: AMES SALMONELLA TYPHIMURIUM, Strain/Indicator: TA1538, Metabolic Activation: HAMSTER, LIVER, S-9, AROCLOR 1254 (10%), Method: STANDARD PLATE) “inactive; negative”; under setting [4], “inactive; negative”; (Test System: AMES SALMONELLA TYPHIMURIUM, Strain/Indicator: TA1538, Metabolic Activation: RAT, LIVER, S-9, AROCLOR 1254 (10%), Method: STANDARD PLATE) “active; positive”. Also, the mutagenic call by setting is: (Test System: MOUSE LYMPHOMA, Strain/Indicator: L5178Y (TK+/TK-), Metabolic Activation: NONE, Method: SUSPENSION/PLATE) “inactive; negative. reevaluation of results: negative”; (Test System: MOUSE LYMPHOMA, Strain/Indicator: L5178Y (TK+/TK-), Metabolic Activation: RAT, LIVER, S-9, AROCLOR 1254, Method: SUSPENSION/PLATE) “inactive; negative. reevaluation of results: equivocal”.

Consider `C[C@@H]1O[C@H](C)[C@@H](O)[C@H](O)[C@@H]1OS(=O)(=O)O`, for which the mutagenic call runs as follows: under setting [1], “inactive; negative”; (Test System: AMES SALMONELLA TYPHIMURIUM, Strain/Indicator: TA98, Metabolic Activation: S-9, Method: STANDARD PLATE) “inactive; negative”; under setting [2], “inactive; negative”; (Test System: AMES SALMONELLA TYPHIMURIUM, Strain/Indicator: TA100, Metabolic Activation: S-9, Method: STANDARD PLATE) “inactive; negative”; under setting [5], “inactive; negative”; (Test System: AMES SALMONELLA TYPHIMURIUM, Strain/Indicator: TA1535, Metabolic Activation: S-9, Method: STANDARD PLATE) “inactive; negative”. Besides, the mutagenic call was “inactive; negative” under setting [3]; “inactive; negative” (Test System: AMES SALMONELLA TYPHIMURIUM, Strain/Indicator: TA1537, Metabolic Activation: S-9, Method: STANDARD PLATE); “inactive; negative” (Test System: E. COLI, Strain/Indicator: WP2 UVRA, Metabolic Activation: NONE, Method: STANDARD PLATE); “inactive; negative” (Test System: E. COLI, Strain/Indicator: WP2 UVRA, Metabolic Activation: S-9, Method: STANDARD PLATE).

Consider `CC1=CC(=C(C#N)C#N)C=C(C=Cc2ccc(N(C)C)cc2)O1`, for which the mutagenic call reads like this: (Test System: AMES SALMONELLA TYPHIMURIUM, Strain/Indicator: TA96, Metabolic Activation: RAT, LIVER, S-9, AROCLOR 1254, Method: STANDARD PLATE) “active; positive”; (Test System: AMES SALMONELLA TYPHIMURIUM, Strain/Indicator: TA97, Metabolic Activation: RAT, LIVER, S-9, AROCLOR 1254, Method: STANDARD PLATE) “active; positive”; (Test System: AMES SALMONELLA TYPHIMURIUM, Strain/Indicator: TA98, Metabolic Activation: RAT, LIVER, S-9, AROCLOR 1254, Method: STANDARD PLATE) “active; positive”; (Test System: AMES SALMONELLA TYPHIMURIUM, Strain/Indicator: TA100, Metabolic Activation: RAT, LIVER, S-9, AROCLOR 1254, Method: STANDARD PLATE) “active; positive”; (Test System: AMES SALMONELLA TYPHIMURIUM, Strain/Indicator: TA102, Metabolic Activation: RAT, LIVER, S-9, AROCLOR 1254, Method: STANDARD PLATE) “active; positive”; (Test System: AMES SALMONELLA TYPHIMURIUM, Strain/Indicator: TA104, Metabolic Activation: RAT, LIVER, S-9, AROCLOR 1254, Method: STANDARD PLATE) “active; positive”. Besides, the mutagenic call reads like this: under setting [4], “inactive; negative”; (Test System: AMES SALMONELLA TYPHIMURIUM, Strain/Indicator: TA1538, Metabolic Activation: RAT, LIVER, MICROSOMES, 3-METHYLCHOLANTHRENE, Method: STANDARD PLATE) “active; positive”; (Test System: AMES SALMONELLA TYPHIMURIUM, Strain/Indicator: TA1538, Metabolic Activation: RAT, LIVER, MICROSOMES, AROCLOR 1254, Method: STANDARD PLATE) “active; positive”; (Test System: AMES SALMONELLA TYPHIMURIUM, Strain/Indicator: TA1538, Metabolic Activation: RAT, LIVER, MICROSOMES, PHENOBARBITAL, Method: STANDARD PLATE) “active; positive”; (Test System: AMES SALMONELLA TYPHIMURIUM, Strain/Indicator: TA1538, Metabolic Activation: RAT, LIVER, MICROSOMES, Method: STANDARD PLATE) “active; positive”; (Test System: AMES SALMONELLA TYPHIMURIUM, Strain/Indicator: TA1538, Metabolic Activation: RAT, LIVER, S-9, AROCLOR 1254, Method: STANDARD PLATE) “active; positive”.

In the case of `CC(C)(c1ccc(OCC(O)CO)cc1)c1ccc(OCC(O)CO)cc1` (stereo not given), the mutagenic call is “inactive; negative” under setting [1]; “inactive; negative” (Test System: AMES SALMONELLA TYPHIMURIUM, Strain/Indicator: TA98, Metabolic Activation: RAT LIVER S-9, PHENOBARBITAL/METHYLCHOLANTHRENE (4%), Method: STANDARD PLATE); “inactive; negative” under setting [2]; “inactive; negative” (Test System: AMES SALMONELLA TYPHIMURIUM, Strain/Indicator: TA100, Metabolic Activation: RAT LIVER S-9, PHENOBARBITAL/METHYLCHOLANTHRENE (4%), Method: STANDARD PLATE); “inactive; negative” under setting [5]; “inactive; negative” (Test System: AMES SALMONELLA TYPHIMURIUM, Strain/Indicator: TA1535, Metabolic Activation: RAT LIVER S-9, PHENOBARBITAL/METHYLCHOLANTHRENE (10%), Method: STANDARD PLATE). The mutagenic call under setting [3] was “inactive; negative” and the mutagenic call (Test System: AMES SALMONELLA TYPHIMURIUM, Strain/Indicator: TA1737, Metabolic Activation: RAT LIVER S-9, PHENOBARBITAL/METHYLCHOLANTHRENE (10%), Method: STANDARD PLATE) was “inactive; negative”.

For the compound `Oc1cc(Cl)c(Cl)c(Cl)c1O`, the mutagenic call (Test System: CHINESE HAMSTER V-79, Strain/Indicator: V-79/6-THIOGUANINE, Metabolic Activation: NONE, Method: STANDARD PLATE) is “inactive; negative”.

The values above are taken from PubChem BioAssay AID1259407 (Chemical Carcinogenesis Research Information System (CCRIS), 2018).
